Measurements as given in US20150005281A1, “PYRIMIDINE-2,4-DIAMINE DERIVATIVES AS KINASE INHIBITORS” (Cellzome Limited, priority 2011, published 2015).

Tests used:
[1] = Changelian et al., 2003; cited from earlier work
JAK3 = target: T1, JAK3 (Homo sapiens, UniProt P52333); assay: Kinobeads assay with immunodetection, JAK3; assay type: binding; details: for IC50: Kinobeads assay, mixed Molt4/Ramos lysate, read-out: Inhibition values (IC50) JAK3
T1 construct: endogenous in cells; host or cells: Molt4 (ATCC CRL-1582) and Ramos (ATCC CRL-1596) cells; mixed lysate 1:2
T1 sequence (P52333 1-1124): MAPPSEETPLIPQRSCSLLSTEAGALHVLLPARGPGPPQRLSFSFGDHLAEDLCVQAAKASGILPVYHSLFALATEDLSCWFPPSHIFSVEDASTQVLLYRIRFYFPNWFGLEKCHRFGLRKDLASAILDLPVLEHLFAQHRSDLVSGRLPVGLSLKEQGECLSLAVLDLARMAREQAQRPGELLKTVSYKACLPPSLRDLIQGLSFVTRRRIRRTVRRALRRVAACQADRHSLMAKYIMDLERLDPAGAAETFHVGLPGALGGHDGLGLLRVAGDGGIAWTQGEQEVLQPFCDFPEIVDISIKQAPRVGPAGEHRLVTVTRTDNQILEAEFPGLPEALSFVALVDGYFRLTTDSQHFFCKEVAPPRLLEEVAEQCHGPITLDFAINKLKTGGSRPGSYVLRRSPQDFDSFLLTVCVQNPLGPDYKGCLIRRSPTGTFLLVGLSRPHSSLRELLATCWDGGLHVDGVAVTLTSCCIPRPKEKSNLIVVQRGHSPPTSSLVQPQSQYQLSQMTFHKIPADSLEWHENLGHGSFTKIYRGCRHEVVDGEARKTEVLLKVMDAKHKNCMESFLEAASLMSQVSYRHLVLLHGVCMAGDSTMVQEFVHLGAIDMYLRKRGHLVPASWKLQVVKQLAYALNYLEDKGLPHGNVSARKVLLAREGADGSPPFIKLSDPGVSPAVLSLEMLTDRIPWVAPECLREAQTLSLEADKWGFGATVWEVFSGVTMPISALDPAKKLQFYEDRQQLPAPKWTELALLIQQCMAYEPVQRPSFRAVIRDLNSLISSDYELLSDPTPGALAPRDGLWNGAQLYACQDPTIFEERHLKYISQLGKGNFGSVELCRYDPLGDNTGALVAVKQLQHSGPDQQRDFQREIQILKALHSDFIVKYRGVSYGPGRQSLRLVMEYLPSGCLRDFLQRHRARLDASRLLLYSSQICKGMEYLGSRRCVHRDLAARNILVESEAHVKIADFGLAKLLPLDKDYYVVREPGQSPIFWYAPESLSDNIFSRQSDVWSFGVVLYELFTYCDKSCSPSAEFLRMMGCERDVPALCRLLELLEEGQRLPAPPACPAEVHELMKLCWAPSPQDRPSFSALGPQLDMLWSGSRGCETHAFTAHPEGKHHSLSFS
Method in brief: (§1)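 Competition binding: test compounds (9-step 1:3 dilutions of a 5 mM DMSO stock) compete with affinity matrix ligand for kinases in Molt4 plus Ramos lysate (ratio 1:2, 10 mg/mL) over 3 h in a cold room. Captured kinases are detected by specific antibodies in dot blot, and IC50 values are derived per kinase.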

JAK2 = target: T2, JAK2 (Homo sapiens, UniProt O60674); assay: Kinobeads assay with immunodetection, JAK2; assay type: binding; details: mixed Molt4/Ramos lysate, read-out: Inhibition values (IC50) JAK2
T2 construct: endogenous in cells; host or cells: Molt4 (ATCC CRL-1582) and Ramos (ATCC CRL-1596) cells; mixed lysate 1:2
Method in brief: as §1

JAK1 = target: T3, JAK1 (Homo sapiens, UniProt P23458); assay: Kinobeads assay with immunodetection, JAK1; assay type: binding; details: for IC50: Kinobeads assay, mixed Molt4/Ramos lysate, read-out: Inhibition values (IC50) JAK1
T3 construct: endogenous in cells; host or cells: Molt4 (ATCC CRL-1582) and Ramos (ATCC CRL-1596) cells; mixed lysate 1:2
Method in brief: as §1

TYK2 = target: T4, TYK2 (Homo sapiens, UniProt P29597); assay: Kinobeads assay with immunodetection, TYK2; assay type: binding; details: Kinobeads assay, mixed Molt4/Ramos lysate; read-out: Inhibition values (IC50) Tyk2
T4 construct: endogenous in cells; host or cells: Molt4 (ATCC CRL-1582) and Ramos (ATCC CRL-1596) cells; mixed lysate 1:2
Method in brief: as §1

[2] = NOD mouse; cited from earlier work
[3] = Cetkovic-Cvrlje and Ucken, 2004; cited from earlier work

T4 sequence (P29597 whole entry): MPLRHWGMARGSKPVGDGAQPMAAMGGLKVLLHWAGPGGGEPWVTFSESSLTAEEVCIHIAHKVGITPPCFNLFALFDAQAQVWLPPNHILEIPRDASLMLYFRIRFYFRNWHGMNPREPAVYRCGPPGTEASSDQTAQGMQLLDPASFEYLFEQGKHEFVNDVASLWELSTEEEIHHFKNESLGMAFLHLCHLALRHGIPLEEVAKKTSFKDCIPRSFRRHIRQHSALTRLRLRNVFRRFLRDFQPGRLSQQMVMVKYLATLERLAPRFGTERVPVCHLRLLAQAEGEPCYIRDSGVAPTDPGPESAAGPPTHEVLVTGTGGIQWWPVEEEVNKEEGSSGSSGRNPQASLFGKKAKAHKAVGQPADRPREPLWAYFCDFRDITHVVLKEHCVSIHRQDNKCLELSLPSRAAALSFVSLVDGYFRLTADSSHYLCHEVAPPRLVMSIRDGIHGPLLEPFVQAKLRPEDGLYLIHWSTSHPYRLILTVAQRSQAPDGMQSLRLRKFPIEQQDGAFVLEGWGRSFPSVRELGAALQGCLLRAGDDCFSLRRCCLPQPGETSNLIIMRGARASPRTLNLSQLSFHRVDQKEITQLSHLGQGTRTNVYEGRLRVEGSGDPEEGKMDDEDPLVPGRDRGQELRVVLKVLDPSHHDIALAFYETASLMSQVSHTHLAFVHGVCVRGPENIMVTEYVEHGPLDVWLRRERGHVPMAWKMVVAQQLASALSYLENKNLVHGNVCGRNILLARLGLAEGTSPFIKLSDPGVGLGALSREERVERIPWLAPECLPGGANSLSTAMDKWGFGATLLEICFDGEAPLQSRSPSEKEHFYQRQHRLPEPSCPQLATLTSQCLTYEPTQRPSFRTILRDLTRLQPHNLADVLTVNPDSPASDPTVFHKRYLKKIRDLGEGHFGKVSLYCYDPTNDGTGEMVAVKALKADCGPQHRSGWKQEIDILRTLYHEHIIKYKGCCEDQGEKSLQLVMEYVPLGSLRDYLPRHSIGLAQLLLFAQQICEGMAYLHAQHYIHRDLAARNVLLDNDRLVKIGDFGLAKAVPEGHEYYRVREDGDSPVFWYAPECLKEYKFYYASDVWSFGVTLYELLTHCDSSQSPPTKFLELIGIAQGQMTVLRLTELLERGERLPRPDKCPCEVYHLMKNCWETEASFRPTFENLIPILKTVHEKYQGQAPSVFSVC
T3 sequence (P23458 whole entry): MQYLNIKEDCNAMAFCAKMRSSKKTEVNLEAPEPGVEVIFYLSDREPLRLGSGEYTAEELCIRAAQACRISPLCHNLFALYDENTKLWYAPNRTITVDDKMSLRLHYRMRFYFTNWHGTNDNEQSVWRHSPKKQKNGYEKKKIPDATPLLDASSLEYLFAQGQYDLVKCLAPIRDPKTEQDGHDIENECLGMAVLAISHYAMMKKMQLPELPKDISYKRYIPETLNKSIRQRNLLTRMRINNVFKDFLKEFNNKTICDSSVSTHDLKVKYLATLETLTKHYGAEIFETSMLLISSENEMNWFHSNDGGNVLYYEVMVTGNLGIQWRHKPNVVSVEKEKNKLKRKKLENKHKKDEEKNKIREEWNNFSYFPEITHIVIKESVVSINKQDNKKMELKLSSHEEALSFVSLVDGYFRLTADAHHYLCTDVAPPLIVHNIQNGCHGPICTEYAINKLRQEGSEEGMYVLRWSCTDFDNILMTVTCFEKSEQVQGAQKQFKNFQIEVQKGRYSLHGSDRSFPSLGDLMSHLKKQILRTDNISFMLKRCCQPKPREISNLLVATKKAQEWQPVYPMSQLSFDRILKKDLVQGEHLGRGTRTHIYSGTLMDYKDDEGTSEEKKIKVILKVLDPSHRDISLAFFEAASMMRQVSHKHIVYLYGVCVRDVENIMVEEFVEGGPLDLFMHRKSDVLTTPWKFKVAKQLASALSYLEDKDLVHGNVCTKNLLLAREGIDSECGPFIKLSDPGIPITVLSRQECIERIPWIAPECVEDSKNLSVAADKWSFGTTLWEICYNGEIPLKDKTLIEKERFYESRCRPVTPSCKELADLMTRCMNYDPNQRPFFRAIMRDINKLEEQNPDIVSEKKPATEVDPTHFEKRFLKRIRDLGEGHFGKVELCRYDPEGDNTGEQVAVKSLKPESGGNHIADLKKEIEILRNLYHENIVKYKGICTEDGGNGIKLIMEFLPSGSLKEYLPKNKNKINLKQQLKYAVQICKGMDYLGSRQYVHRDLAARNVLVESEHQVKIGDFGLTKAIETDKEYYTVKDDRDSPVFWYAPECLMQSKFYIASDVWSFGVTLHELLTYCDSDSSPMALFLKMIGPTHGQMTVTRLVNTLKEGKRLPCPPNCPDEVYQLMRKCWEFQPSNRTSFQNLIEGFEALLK
T2 sequence (O60674 whole entry): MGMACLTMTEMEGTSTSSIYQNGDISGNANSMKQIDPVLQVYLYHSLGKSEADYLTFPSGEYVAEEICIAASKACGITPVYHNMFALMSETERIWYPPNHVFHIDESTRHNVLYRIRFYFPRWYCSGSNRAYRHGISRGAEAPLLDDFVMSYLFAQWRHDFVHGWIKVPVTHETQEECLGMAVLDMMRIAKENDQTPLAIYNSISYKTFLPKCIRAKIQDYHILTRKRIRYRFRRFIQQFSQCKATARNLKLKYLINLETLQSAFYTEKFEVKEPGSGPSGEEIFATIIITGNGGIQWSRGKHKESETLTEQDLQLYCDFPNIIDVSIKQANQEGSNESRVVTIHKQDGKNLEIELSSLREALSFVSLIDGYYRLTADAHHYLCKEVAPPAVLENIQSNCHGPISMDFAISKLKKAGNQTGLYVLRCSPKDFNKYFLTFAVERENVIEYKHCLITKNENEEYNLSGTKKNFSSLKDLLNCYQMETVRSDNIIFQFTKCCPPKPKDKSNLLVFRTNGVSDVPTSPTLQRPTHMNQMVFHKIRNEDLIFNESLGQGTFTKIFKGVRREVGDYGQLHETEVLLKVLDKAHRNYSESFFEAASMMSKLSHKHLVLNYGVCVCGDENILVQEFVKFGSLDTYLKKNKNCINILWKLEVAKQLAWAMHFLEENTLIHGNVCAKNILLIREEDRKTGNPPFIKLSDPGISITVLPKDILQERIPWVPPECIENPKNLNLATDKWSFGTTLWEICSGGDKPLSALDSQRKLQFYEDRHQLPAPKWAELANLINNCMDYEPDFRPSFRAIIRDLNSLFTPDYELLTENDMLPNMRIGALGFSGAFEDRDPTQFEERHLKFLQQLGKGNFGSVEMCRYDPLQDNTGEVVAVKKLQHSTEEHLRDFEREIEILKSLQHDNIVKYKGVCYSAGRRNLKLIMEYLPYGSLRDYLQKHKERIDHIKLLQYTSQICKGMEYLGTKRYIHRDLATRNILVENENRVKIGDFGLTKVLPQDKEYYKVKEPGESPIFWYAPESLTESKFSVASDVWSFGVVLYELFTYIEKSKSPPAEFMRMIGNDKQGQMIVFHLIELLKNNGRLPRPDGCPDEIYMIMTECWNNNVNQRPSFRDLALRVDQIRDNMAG

SMILES | efficacy in organ transplantation model [1] | IC50 (JAK3) [nM] | IC50 (JAK2) [nM] | Selectivity ratio over JAK2, JAK1 (JAK1) | IC50 (JAK1) [nM] | IC50 (TYK2) [nM] | Selectivity ratio over JAK2, JAK3 (JAK3) | spontaneous autoimmune diabetes development [2] | severity of GVHD [3]
C[C@@H]1CCN(C(=O)CC#N)C[C@@H]1N(C)c1ncnc2[nH]ccc12 [CP-690,550] | efficacy | – | – | – | – | – | – | – | –
Cc1cnc(Nc2cnn(CC(F)F)c2)nc1NC[C@@H]1CCCN1C(=O)CC#N [Example 124, (S)-3-(2-(((2-((1-(2,2-difluoroethyl)-1H-pyrazol-4-yl)amino)-5-methylpyrimidin-4-yl)amino)methyl)pyrrolidin-1-yl)-3-oxopropanenitrile] | – | 100 to 1000 | 1000 to 10000 | JAK1 = 101 | < 100 | < 100 | – | – | –
Cc1cnc(Nc2cnn(CC(F)F)c2)nc1NC[C@@H]1CCCN1C(=O)CCC#N [Example 125, (S)-4-(2-(((2-((1-(2,2-difluoroethyl)-1H-pyrazol-4-yl)amino)-5-methylpyrimidin-4-yl)amino)methyl)pyrrolidin-1-yl)-4-oxobutanenitrile] | – | 100 to 1000 | 1000 to 10000 | JAK1 = 197 | < 100 | < 100 | – | – | –
Cn1cc(Nc2ncc(Cl)c(NC[C@H]3CCCN3CCNS(C)(=O)=O)n2)cn1 [Example 126, (R)—N-(2-(2-(((5-chloro-2-((1-methyl-1H-pyrazol-4-yl)amino)pyrimidin-4-yl)amino)methyl)pyrrolidin-1-yl)ethyl)methanesulfonamide] | – | 100 to 1000 | 100 to 1000 | – | < 100 | < 100 | JAK3 = 46 | – | –
Cc1cnc(Nc2cnn(CC(F)F)c2)nc1NC[C@H]1CCN(CCS(C)(=O)=O)C1 [Example 127, (R)—N^2-(1-(2,2-difluoroethyl)-1H-pyrazol-4-yl)-5-methyl-N^4-((1-(2-(methylsulfonyl)ethyl)pyrrolidin-3-yl)methyl)pyrimidine-2,4-diamine] | – | 100 to 1000 | 1000 to 10000 | JAK1 = 83 | < 100 | 100 to 1000 | – | – | –
Cc1cnc(Nc2cnn(CC(F)F)c2)nc1NC[C@H]1CCN(CCC#N)C1 [Example 128, (R)-3-(3-(((2-((1-(2,2-difluoroethyl)-1H-pyrazol-4-yl)amino)-5-methylpyrimidin-4-yl)amino)methyl)pyrrolidin-1-yl)propanenitrile] | – | 100 to 1000 | 1000 to 10000 | JAK1 = 77 | < 100 | 100 to 1000 | – | – | –
Cc1cnc(Nc2cnn(CC(F)F)c2)nc1NC[C@H]1CCN(C(=O)CC#N)C1 [Example 129, (R)-3-(3-(((2-((1-(2,2-difluoroethyl)-1H-pyrazol-4-yl)amino)-5-methylpyrimidin-4-yl)amino)methyl)pyrrolidin-1-yl)-3-oxopropanenitrile] | – | 100 to 1000 | 1000 to 10000 | JAK1 = 139 | < 100 | < 100 | – | – | –
Cc1cnc(Nc2cnn(CC(F)F)c2)nc1NC[C@H]1CCN(C(=O)CCC#N)C1 [Example 130, (R)-4-(3-(((2-((1-(2,2-difluoroethyl)-1H-pyrazol-4-yl)amino)-5-methylpyrimidin-4-yl)amino)methyl)pyrrolidin-1-yl)-4-oxobutanenitrile] | – | 100 to 1000 | 100 to 1000 | JAK1 = 143 | < 100 | < 100 | – | – | –
Cn1cc(Nc2ncc(Cl)c(NC[C@H]3CCCN3CC#N)n2)cn1 [Example 131, (R)-2-(2-(((5-chloro-2-((1-methyl-1H-pyrazol-4-yl)amino)pyrimidin-4-yl)amino)methyl)pyrrolidin-1-yl)acetonitrile] | – | < 100 | 100 to 1000 | – | < 100 | < 100 | JAK3 = 85 | – | –
Cn1cc(Nc2ncc(Cl)c(NC[C@@H]3C[C@H](F)CN3CCCS(C)(=O)=O)n2)cn1 [Example 132, 5-chloro-N^4-(((2S,4S)-4-fluoro-1-(3-(methylsulfonyl)propyl)pyrrolidin-2-yl)methyl)-N^2-(1-methyl-1H-pyrazol-4-yl)pyrimidine-2,4-diamine] | – | 100 to 1000 | 1000 to 10000 | JAK1 = 100 | < 100 | < 100 | – | – | –
Cn1cc(Nc2ncc(Cl)c(NC[C@@H]3C[C@H](F)CN3CCCC#N)n2)cn1 [Example 133, 4-((2S,4S)-2-(((5-chloro-2-((1-methyl-1H-pyrazol-4-yl)amino)pyrimidin-4-yl)amino)methyl)-4-fluoropyrrolidin-1-yl)butanenitrile] | – | < 100 | < 100 | JAK1 = 19 | < 100 | < 100 | – | – | –
Cn1cc(Nc2ncc(Cl)c(NCC3CCCN(C(=O)CC#N)C3)n2)cn1 (centres unmarked) [Example 134, 3-(3-(((5-chloro-2-((1-methyl-1H-pyrazol-4-yl)amino)pyrimidin-4-yl)amino)methyl)piperidin-1-yl)-3-oxopropanenitrile] | – | < 100 | 100 to 1000 | – | < 100 | < 100 | JAK3 = 32 | – | –
Cn1cc(Nc2ncc(Cl)c(NC[C@@H]3CCCN(C(=O)CC#N)C3)n2)cn1 [Example 135, (S)-3-(3-(((5-chloro-2-((1-methyl-1H-pyrazol-4-yl)amino)pyrimidin-4-yl)amino)methyl)piperidin-1-yl)-3-oxopropanenitrile] | – | < 100 | 100 to 1000 | – | < 100 | < 100 | JAK3 = 40 | – | –
Cn1cc(Nc2ncc(Cl)c(NC[C@@H]3CCCN(C(=O)CCC#N)C3)n2)cn1 [Example 136, (S)-4-(3-(((5-chloro-2-((1-methyl-1H-pyrazol-4-yl)amino)pyrimidin-4-yl)amino)methyl)piperidin-1-yl)-4-oxobutanenitrile] | – | < 100 | 100 to 1000 | – | 100 to 1000 | 100 to 1000 | JAK3 = 78 | – | –
Cn1cc(Nc2ncc(Cl)c(NC[C@H]3CCCN(C(=O)CC#N)C3)n2)cn1 [Example 137, (R)-3-(3-(((5-chloro-2-((1-methyl-1H-pyrazol-4-yl)amino)pyrimidin-4-yl)amino)methyl)piperidin-1-yl)-3-oxopropanenitrile] | – | < 100 | 100 to 1000 | – | < 100 | < 100 | JAK3 = 33 | – | –
Cn1cc(Nc2ncc(Cl)c(NC[C@H]3CCCN(C(=O)CCC#N)C3)n2)cn1 [Example 138, (R)-4-(3-(((5-chloro-2-((1-methyl-1H-pyrazol-4-yl)amino)pyrimidin-4-yl)amino)methyl)piperidin-1-yl)-4-oxobutanenitrile] | – | < 100 | 100 to 1000 | – | < 100 | < 100 | JAK3 = 23 | – | –
CC(C)S(=O)(=O)CCN1CCC[C@@H]1CNc1nc(Nc2cnn(C)c2)ncc1Cl [Example 139, (R)-5-chloro-N^4-((1-(2-(isopropylsulfonyl)ethyl)pyrrolidin-2-yl)methyl)-N^2-(1-methyl-1H-pyrazol-4-yl)pyrimidine-2,4-diamine] | – | < 100 | 1000 to 10000 | – | < 100 | 100 to 1000 | JAK3 = 83 | – | –
COc1cc2ncnc(Nc3ccc(O)cc3)c2cc1OC [JANEX-1] | – | – | – | – | – | – | – | prevent spontaneous autoimmune diabetes development | attenuate the severity of GVHD
